In US6534447B1, “Herbicidal pyridine compounds” (BASF Aktiengesellschaft, priority 1999, dated 2003):

Columns and labels:
Format in all cases: in vivo
[1] = tested on: Matricaria inodora (MATIN, mayweed); experiment: Post-emergence herbicidal evaluation; conditions: 3 weeks after treatment
Summary of the method: (§1)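 Acetone solutions of test compound were diluted with water and sprayed onto plants at rates equivalent to about 0.025 to 0.4 kg per hectare per pot. Plants were then kept on greenhouse benches under conventional care and rated from 3 weeks after treatment on a 0 (as untreated control) to 9 (death) scale.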

[2] = tested on: Echinochloa grus galli (ECHCG, barnyard grass); experiment: Post-emergence herbicidal evaluation; conditions: 3 weeks after treatment
Summary of the method: as §1

[3] = tested on: Galium aparine (GALAP, cleaver); experiment: Post-emergence herbicidal evaluation; conditions: 3 weeks after treatment
Summary of the method: as §1

[4] = tested on: Ipomoea hederacea (IPOHE, morning glory); experiment: Post-emergence herbicidal evaluation; conditions: 3 weeks after treatment
Summary of the method: as §1

[5] = tested on: Abutilon theophrasti (ABUTH, velvetleaf); experiment: Post-emergence herbicidal evaluation; conditions: 3 weeks after treatment
Summary of the method: as §1

[6] = tested on: Setaria viridis (SETVI, green foxtail); experiment: Post-emergence herbicidal evaluation; conditions: 3 weeks after treatment
Summary of the method: as §1

[7] = tested on: Stellaria media (STEME, chickweed); experiment: Post-emergence herbicidal evaluation; conditions: 3 weeks after treatment
Summary of the method: as §1

[8] = tested on: Dolium multiflorum (LOLMU, ryegrass); experiment: Post-emergence herbicidal evaluation; conditions: rate 0.100 kg/ha, 3 weeks after treatment
Summary of the method: as §1

[9] = tested on: Alopecurus myosuroides (ALOMY, black grass); experiment: Post-emergence herbicidal evaluation; conditions: 3 weeks after treatment
Summary of the method: as §1

Zea mays (ZEAMX, maize) = experiment: Pre-emergence herbicidal evaluation (crop); conditions: 3 weeks after treatment
Summary of the method: (§2)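 Seeds mixed with potting soil and sown on about one inch of soil per pot, then sprayed with aqueous acetone solution of test compound at the equivalent of about 0.025 to 0.4 kg per hectare. Pots kept under standard greenhouse care and visually rated from 3 weeks after treatment.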

[10] = tested on: Triticum aestivum (TRZAW, winter wheat); experiment: Pre-emergence herbicidal evaluation (crop); conditions: 3 weeks after treatment
Summary of the method: as §2

[11] = tested on: Glycine max (GLXMA, soyabeans); experiment: Pre-emergence herbicidal evaluation (crop); conditions: 3 weeks after treatment
Summary of the method: as §2

eight weed species = experiment: Pre-emergence herbicidal evaluation, overall weed control
Excerpt: The pre-emergence herbicidal activity of the compounds of the present invention is exemplified by the following test in which the seeds of a variety of monocotyledonous and dicotyledonous plants are seperately mixed with potting soil and planted on top of approximately one inch of soil in separate post. After planting, the pots are sprayed with the selected aqueous acetone solution. containing test compound in sufficient quantity to provide the equivalent of about 0.025 to 0.4 kg per hectare of test compound per pot. The treated pots are then placed on greenhouse benches, watered and cared for in accordance with conventional greenhouse procedures. From 3 weeks after treatment, the tests are terminated and each pot is examined and rated according to the rating system set forth below.
Thus, there is evidence for the good potential of the compounds of the invention for excellent cross spectrum control of both grasses and broadleaf weeds in key crops.

[12] = tested on: Matricaria inodora (MATIN, mayweed); experiment: Pre-emergence herbicidal evaluation; conditions: 3 weeks after treatment
Summary of the method: as §2

[13] = tested on: Echinochloa grus galli (ECHCG, barnyard grass); experiment: Pre-emergence herbicidal evaluation; conditions: 3 weeks after treatment
Summary of the method: as §2

[14] = tested on: Galium aparine (GALAP, cleaver); experiment: Pre-emergence herbicidal evaluation; conditions: 3 weeks after treatment
Summary of the method: as §2

[15] = tested on: Ipomoea hederacea (IPOHE, morning glory); experiment: Pre-emergence herbicidal evaluation; conditions: 3 weeks after treatment
Summary of the method: as §2

[16] = tested on: Abutilon theophrasti (ABUTH, velvetleaf); experiment: Pre-emergence herbicidal evaluation; conditions: 3 weeks after treatment
Summary of the method: as §2

[17] = tested on: Setaria viridis (SETVI, green foxtail); experiment: Pre-emergence herbicidal evaluation; conditions: 3 weeks after treatment
Summary of the method: as §2

[18] = tested on: Stellaria media (STEME, chickweed); experiment: Pre-emergence herbicidal evaluation; conditions: 3 weeks after treatment
Summary of the method: as §2

[19] = tested on: Alopecurus myosuroides (ALOMY, black grass); experiment: Pre-emergence herbicidal evaluation; conditions: 3 weeks after treatment
Summary of the method: as §2

For Cc1cc(OCCCSC(F)(F)F)nc(Oc2cc(C(F)(F)F)nn2C)c1 [Example 4], the MATIN rating ([1]; rate 0.025 kg/ha) was 4 (4 - Injury), the MATIN rating ([1]; rate 0.100 kg/ha) was 7 (7 - Good herbicidal effect) and the MATIN rating ([1]; rate 0.400 kg/ha) was 8 (8 - Approaching complete kill). For the same compound, the ECHCG rating ([2]; rate 0.025 kg/ha) was 8 (8 - Approaching complete kill), the ECHCG rating ([2]; rate 0.100 kg/ha) was 8 (8 - Approaching complete kill) and the ECHCG rating ([2]; rate 0.400 kg/ha) was 9 (9 - Complete kill). The GALAP rating ([3]; rate 0.025 kg/ha) was 7 (7 - Good herbicidal effect), the GALAP rating ([3]; rate 0.100 kg/ha) was 8 (8 - Approaching complete kill) and the GALAP rating ([3]; rate 0.400 kg/ha) was 9 (9 - Complete kill). The IPOHE rating ([4]; rate 0.025 kg/ha) was 5 (5 - Definite injury), the IPOHE rating ([4]; rate 0.100 kg/ha) was 7 (7 - Good herbicidal effect) and the IPOHE rating ([4]; rate 0.400 kg/ha) was 9 (9 - Complete kill). The ABUTH rating ([5]; rate 0.025 kg/ha) was 5 (5 - Definite injury), the ABUTH rating ([5]; rate 0.100 kg/ha) was 7 (7 - Good herbicidal effect) and the ABUTH rating ([5]; rate 0.400 kg/ha) was 8 (8 - Approaching complete kill). The SETVI rating ([6]; rate 0.025 kg/ha) was 5 (5 - Definite injury), the SETVI rating ([6]; rate 0.100 kg/ha) was 7 (7 - Good herbicidal effect) and the SETVI rating ([6]; rate 0.400 kg/ha) was 9 (9 - Complete kill). The STEME rating ([7]; rate 0.025 kg/ha) was 5 (5 - Definite injury), the STEME rating ([7]; rate 0.100 kg/ha) was 5 (5 - Definite injury) and the STEME rating ([7]; rate 0.400 kg/ha) was 8 (8 - Approaching complete kill). The LOLMU rating [8] was 8 (8 - Approaching complete kill), the ALOMY rating ([9]; rate 0.025 kg/ha) was 6 (6 - Herbicidal effect) and the ALOMY rating ([9]; rate 0.100 kg/ha) was 8 (8 - Approaching complete kill). For the same compound, the ALOMY rating ([9]; rate 0.400 kg/ha) was 8 (8 - Approaching complete kill), the ZEAMX rating (Zea mays (ZEAMX, maize); rate 0.025 kg/ha) was 2 (2 - Slight effect) and the ZEAMX rating (Zea mays (ZEAMX, maize); rate 0.100 kg/ha) was 2 (2 - Slight effect). The ZEAMX rating (Zea mays (ZEAMX, maize); rate 0.400 kg/ha) was 4 (4 - Injury), the TRZAW rating ([10]; rate 0.025 kg/ha) was 0 (0 - No effect) and the TRZAW rating ([10]; rate 0.100 kg/ha) was 0 (0 - No effect). The TRZAW rating ([10]; rate 0.400 kg/ha) was 2 (2 - Slight effect), the GLXMA rating ([11]; rate 0.025 kg/ha) was 1 (1 - Trace effect) and the GLXMA rating ([11]; rate 0.100 kg/ha) was 2 (2 - Slight effect). For the same compound, the GLXMA rating ([11]; rate 0.400 kg/ha) was 3 (3 - Moderate effect), the “weed control (in words)” value (eight weed species; crop selective dose of 0.1 kg/ha) was “high levels of activity” and the “weed control (in words)” value (eight weed species; wheat selective dose of 0.4 kg/ha) was “complete weed control”. For the same compound, the MATIN rating ([12]; rate 0.025 kg/ha) was 8 (8 - Approaching complete kill), the MATIN rating ([12]; rate 0.100 kg/ha) was 8 (8 - Approaching complete kill) and the MATIN rating ([12]; rate 0.400 kg/ha) was 8 (8 - Approaching complete kill). The ECHCG rating ([13]; rate 0.025 kg/ha) was 3 (3 - Moderate effect), the ECHCG rating ([13]; rate 0.100 kg/ha) was 8 (8 - Approaching complete kill) and the ECHCG rating ([13]; rate 0.400 kg/ha) was 9 (9 - Complete kill). For the same compound, the GALAP rating ([14]; rate 0.025 kg/ha) was 4 (4 - Injury), the GALAP rating ([14]; rate 0.100 kg/ha) was 8 (8 - Approaching complete kill) and the GALAP rating ([14]; rate 0.400 kg/ha) was 8 (8 - Approaching complete kill). For the same compound, the IPOHE rating ([15]; rate 0.025 kg/ha) was 6 (6 - Herbicidal effect), the IPOHE rating ([15]; rate 0.100 kg/ha) was 9 (9 - Complete kill) and the IPOHE rating ([15]; rate 0.400 kg/ha) was 9 (9 - Complete kill). For the same compound, the ABUTH rating ([16]; rate 0.025 kg/ha) was 3 (3 - Moderate effect), the ABUTH rating ([16]; rate 0.100 kg/ha) was 7 (7 - Good herbicidal effect) and the ABUTH rating ([16]; rate 0.400 kg/ha) was 9 (9 - Complete kill). For the same compound, the SETVI rating ([17]; rate 0.025 kg/ha) was 8 (8 - Approaching complete kill), the SETVI rating ([17]; rate 0.100 kg/ha) was 9 (9 - Complete kill) and the SETVI rating ([17]; rate 0.400 kg/ha) was 9 (9 - Complete kill). For the same compound, the STEME rating ([18]; rate 0.025 kg/ha) was 9 (9 - Complete kill), the STEME rating ([18]; rate 0.100 kg/ha) was 9 (9 - Complete kill) and the STEME rating ([18]; rate 0.400 kg/ha) was 9 (9 - Complete kill). The ALOMY rating ([19]; rate 0.025 kg/ha) was 5 (5 - Definite injury), the ALOMY rating ([19]; rate 0.100 kg/ha) was 8 (8 - Approaching complete kill) and the ALOMY rating ([19]; rate 0.400 kg/ha) was 8 (8 - Approaching complete kill).
